For assay [1], the target named is recombinant human AMPK complex 1 (containing α1β1γ1) (Homo sapiens, UniProt Q13131+Q9Y478). As to the kind of experiment: in vitro AMPK activation assay (AMPKSAMSF). The format is biochemical. As to conditions: recombinant human AMPK complex 1 (α1β1γ1); for EC50: table. Here is the method: AMPKSAMSF (in vitro AMPK Activation Assay)
The recombinant human AMPK complex 1 (containing α1β1γ1) was obtained from baculovirus expression system. Recombinant viruses were generated by cotransfection of AMPK/pBacPak9 clones with Baculogold baculovirus DNA (Pharmingen) in spodoptera frugiperda 21 cells according to the manufacturer's instructions. Each round of virus amplification was performed for 5 days in Grace's medium containing 10% serum. Virus that had been subjected to three rounds of amplification was used for all protein production procedures. To express the AMPK complex, sf21 cells were adapted to serum free medium (SF900 II, Invitrogen) by sequential dilution from serum containing stocks into SF900II medium and maintained in shaker flasks at 90 rpm at 27° C. The recombinant AMPK enzyme complex was produced by triple infection, one recombinant virus for each of the subunits, in sf21 cells under serum free conditions. Cells were infected in log phase, 1×10^6 cells/ml, at a multiplicity of infection […] were harvested by centrifugation at 10,000×g for 15 minutes after 72 hours of infection with viruses. The insect cell pellet from 2 liters of culture was resuspended in 50 ml lysis buffer (20 mM Tris-HCl, 50 mM NaCl, 50 mM NaF, 30 mM Na PPi, 0.25 M sucrose, 10 mM ZnCl2, 2 mM DTT, 0.4 mg/ml digitonin) and subjected to two cycles of freeze-thaw lysis in a dry-ice ethanol bath. Insoluble material was removed by centrifugation at 10,000×g and the supernatant was fractionated with use of polyethylene glycol (PEG). The protein fraction precipitating between 2.5 and 6% PEG was used for further purification using a Blue-Sepharose step (Zhou et al, J. Clin. Invest. 108, 1167-1174, 2001).
The in vitro AMPK activation assay is performed in a volume of 30 μl in a 384-well plate. Enzyme reactions were assembled in the microtiter plate by adding 15 μl of 2× enzyme in assay buffer (20 mM HEPES, pH 7.3, 5 mM MgCl2, 3 mM DTT, 0.01% Brij 35 and CamK Kinase, to activate AMPK) to wells which contained either DMSO or compound. The reaction was initiated with the addition of […] substrate mixture containing 200 μM ATP, and 3.0 μM fluorescently labeled SAMS (5-FAM-HMRSAMSGLHLVKRR-COOH) in assay buffer. After 45-minute incubation at 25° C., the reaction was stopped by the addition of 70 μl stop buffer (100 mM HEPES, pH 7.3, 40 mM EDTA, 0.015% Brij 35). Phosphorylated 5-FAM SAMS product is assessed using a Caliper EZ Reader LabChip microfluidics reader. Product conversion is determined by calculating the peak heights of the substrate and product and reporting the product/(product+substrate) peak ratio. The 10-point titration data were expressed as maximum AMP activation. The results were plotted using 4 parameter fit and the inflection point reflecting 50% of the maximum activation was reported as the EC50.

A further assay relates to ob/ob and db/db mice. The settings on record: following 8 weeks of administration; cited from earlier work.

As usually defined, the EC50 is the concentration giving half of the maximal effect.

Sequence of recombinant human AMPK complex 1 (containing α1β1γ1) (Q13131 whole entry): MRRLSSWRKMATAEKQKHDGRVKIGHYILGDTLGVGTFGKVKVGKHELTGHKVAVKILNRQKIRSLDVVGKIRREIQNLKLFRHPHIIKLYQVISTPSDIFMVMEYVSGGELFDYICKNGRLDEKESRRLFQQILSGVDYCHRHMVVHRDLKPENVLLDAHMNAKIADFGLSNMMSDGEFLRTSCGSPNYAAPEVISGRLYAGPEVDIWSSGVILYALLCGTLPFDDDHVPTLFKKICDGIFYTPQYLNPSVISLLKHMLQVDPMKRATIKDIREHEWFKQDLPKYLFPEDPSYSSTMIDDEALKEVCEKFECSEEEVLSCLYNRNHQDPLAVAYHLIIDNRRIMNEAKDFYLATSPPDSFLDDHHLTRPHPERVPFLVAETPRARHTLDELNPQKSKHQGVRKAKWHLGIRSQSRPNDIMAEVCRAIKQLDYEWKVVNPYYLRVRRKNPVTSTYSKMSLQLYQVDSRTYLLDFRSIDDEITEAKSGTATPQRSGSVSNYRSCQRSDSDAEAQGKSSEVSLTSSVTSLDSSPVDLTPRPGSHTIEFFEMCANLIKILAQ
Sequence of recombinant human AMPK complex 1 (containing α1β1γ1) (Q9Y478 whole entry): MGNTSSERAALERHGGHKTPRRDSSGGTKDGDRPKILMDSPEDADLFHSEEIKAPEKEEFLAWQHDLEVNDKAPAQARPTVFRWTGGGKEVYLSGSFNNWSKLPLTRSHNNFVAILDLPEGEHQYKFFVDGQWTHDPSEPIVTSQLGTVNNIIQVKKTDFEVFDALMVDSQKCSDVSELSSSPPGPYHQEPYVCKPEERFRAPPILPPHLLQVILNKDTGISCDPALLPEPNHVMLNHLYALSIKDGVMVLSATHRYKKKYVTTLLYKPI
Sequence of recombinant human AMPK complex 1 (containing α1β1γ1) (P54619 whole entry partner): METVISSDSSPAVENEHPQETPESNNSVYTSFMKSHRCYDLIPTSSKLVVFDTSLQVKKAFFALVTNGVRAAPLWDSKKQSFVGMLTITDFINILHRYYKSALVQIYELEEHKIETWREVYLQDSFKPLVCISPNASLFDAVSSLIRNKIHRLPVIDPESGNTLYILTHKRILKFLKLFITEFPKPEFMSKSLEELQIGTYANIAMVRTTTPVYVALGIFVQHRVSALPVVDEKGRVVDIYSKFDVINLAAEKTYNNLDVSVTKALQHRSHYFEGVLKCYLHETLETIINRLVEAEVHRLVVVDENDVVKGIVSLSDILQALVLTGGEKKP

As to `O=C(O)C1CCC(Oc2nc3c(F)c(-c4ccc(-c5ccc(C(=O)N6CCC(O)CC6)cc5)cc4)c(F)cc3[nH]2)CC1` (single isomer, unassigned) [Example 20, 4-[(4,6-difluoro-5-{4′-[(4-hydroxypiperidin-1-yl)carbonyl]biphenyl-4-yl}-1H-benzimidazol-2-yl)oxy]cyclohexanecarboxylic acid], in assay [1], the “% Maximum AMP Activation of human AMPK Complex 1” value (“% Maximum AMP Activation” below) turned out to be 642% and the EC50 came out at 10 nM. With `NC(=O)c1ncn([C@@H]2O[C@H](CO)[C@@H](O)[C@H]2O)c1N` [AICAR], the blood glucose reduction in the assay on ob/ob and db/db mice was 35%.

For the molecule `O=C(O)C1CCC(Oc2nc3c(F)c(-c4ccc(-c5ccccc5)cc4)c(F)cc3[nH]2)CC1` (stereo not drawn) [Example 15, 4-{[5-(biphenyl-4-yl)-4,6-difluoro-1H-benzimidazol-2-yl]oxy}-cyclohexane carboxylic acid], in assay [1], the “% Maximum AMP Activation” value was 653% and the EC50 came out at 10 nM. Regarding `O=C(O)C1CCCC(Oc2nc3c(F)c(-c4ccc(-c5ccccc5)cc4)c(F)cc3[nH]2)C1` (stereo not drawn) [Example 16, 3-{[5-(biphenyl-4-yl)-4,6-difluoro-1H-benzimidazol-2-yl]oxy}cyclohexanecarboxylic acid], in assay [1], the “% Maximum AMP Activation” value is given as 617% and the EC50 was found to be 6 nM. With `O=C(O)C1CCC(Oc2nc3c(F)c(-c4ccc(-c5ccccc5)cc4)c(F)cc3[nH]2)C1` (stereo not drawn) [Example 17, 3-{[5-(biphenyl-4-yl)-4,6-difluoro-1H-benzimidazol-2-yl]oxy}cyclopentanecarboxylic acid], in assay [1], the “% Maximum AMP Activation” value amounted to 593% and the EC50 was found to be 13 nM. Consider `O=C(O)C1CC(Oc2nc3c(F)c(-c4ccc(-c5ccccc5)cc4)c(F)cc3[nH]2)C1` (stereo not drawn) [Example 18, 3-{[5-(biphenyl-4-yl)-4,6-difluoro-1H-benzimidazol-2-yl]oxy}cyclobutanecarboxylic acid], for which, in assay [1], the “% Maximum AMP Activation” value is recorded as 538% and the EC50 is 14 nM. For the molecule `O=C(O)C1CC1COc1nc2c(F)c(-c3ccc(-c4ccccc4)cc3)c(F)cc2[nH]1` (stereo not drawn) [Example 19, 2-({[5-(biphenyl-4-yl)-4,6-difluoro-1H-benzimidazol-2-yl]oxy}methyl)cyclopropane-carboxylic acid], in assay [1], the “% Maximum AMP Activation” value was 631% and the EC50 worked out at 17 nM. For `O=C(O)C1CCC(Oc2nc3c(F)c(-c4ccc5c(ccn5C5CC5)c4)c(F)cc3[nH]2)CC1` (stereo not drawn) [Example 21, 4-{[5-(1-Cyclopropyl-1H-indol-5-yl)-4,6-difluoro-1H-benzimidazol-2-yl]oxy}cyclohexanecarboxylic acid], in assay [1], the “% Maximum AMP Activation” value is listed as 504% and the EC50 came to 4 nM.

The values above are taken from patent US8895596B2, “Cyclic benzimidazole derivatives useful as anti-diabetic agents” (Merck Sharp & Dohme Corp, priority 2010, dated 2014).
